Results as given in PMC5093207, “Pre-clinical Evaluation of a Cyanine-Based SPECT Probe for Multimodal Tumor Necrosis Imaging” (Molecular Imaging and Biology, 2016).

Key:
[1] = tested on: 4T1-luc2 cells; experiment: In vitro MTS viability assay; assay type: cell-based; details: Mus musculus, 24 h, 4T1 cells, read-out: IC50 of induced cell death
Method: 4T1-luc2 cells were plated in a 96-well plate (Costar) in 100 μl medium at a density of 10,000 cells per well and left over night to adhere. The next day, the medium was replaced with medium containing the experimental compounds: HQ4, HQ4-DTPA, HQ5, and Gambogic acid (GA), three wells per condition. After 24 h, cell viability was measured using a nonradioactive colorimetric MTS viability assay (Promega Benelux) according to the manufacturer’s protocol. Optical absorption was measured at 490 nm with a Versamax absorbance microplate reader (Molecular Devices).
Supplementary Figure 3: MTS cell viability assay of various agents.
Confluent cultures of 4T1 cells were incubated for 24hr with various concentrations HQ4, HQ4-DTPA, HQ5 or the natural anti-cancer compound Gambogic Acid (GA). Relative cell viability (%) was expressed as a percentage relative to the untreated control.
GA induced cell death with an IC50 of around 6µM.
(§1) (1 picture or pasted object on this page, not shown here)

[2] = tested on: 4T1-luc2 cells; experiment: Dry ice dead cell assay (cryo-induced cell death), fluorescence and radioactivity read-out; assay type: cell-based, mouse; details: 100 nM, 15 min incubation, 4T1 cells; for accumulation in the dead cells area by radioactivity (RA) measurement: phosphor imaging
Method: In vitro, cell death was studied using a cryo-induced cell death assay as previously described. In short, 4T1-luc2 cells were seeded onto 24-well tissue culture plates (Sigma-Aldrich) and grown until confluent. After discarding the medium, a bar of dry ice 3–5 mm in diameter was applied to the underside of the culture well for 20 s. Subsequently, the cells were incubated in the dark for 15 min at RT with HQ4 at a concentration of 100 nM. After incubation, the samples were gently washed with phosphate-buffered saline (PBS) and subsequently scanned for fluorescence using the Odyssey Infrared Imager 9120 (LI-COR) and for radioactivity via phosphor imaging on the Typhoon 9410 imager (GE Healthcare).
Fig. 2 In vitro necrosis avid properties of [^111In]DTPA-HQ4 by fluorescence and radioactivity measurements. a Necrotic cell death in confluent monolayers of 4T1 mouse breast cancer cells was induced by applying dry ice to the underside of the culture well. Cells were subsequently incubated for 15 min with one of the following: HQ4, HQ4-DTPA, [^111In]DTPA-HQ4, [^111In]DTPA, or ^111In-Cl3 (100 nM, 10 μg). After subsequent washing with PBS, cells were imaged either for fluorescence (FLI, upper panel) or for radioactivity (RA, lower panel). NL = not labeled. b Calculated signal-to-background (S/B) ratio (FLI and RA) of the different compounds obtained from the dry ice assay. The S/B ratio was defined as the signal intensity obtained from the area of dead cells in the center of the well divided by the signal intensity obtained from an area of living cells of the same size in the periphery.

[3] = tested on: 4T1 tumor bearing mice; experiment: Biodistribution (gamma counting of organs) in 4T1 tumor bearing mice, model of spontaneous tumor necrosis; assay type: in vivo, mouse; details: 24 h after i.v. injection, 10 μg, 30-35 MBq
Method: Approximately 1 × 10^5 4T1-luc2 cells, suspended in 15 μl PBS, were implanted bilateral and subcutaneously onto the upper back of nude mice. Tumors were grown until they reached a size of 6–7 mm in diameter which developed roughly after 1.5–2 weeks of tumor implantation.
(§2) To study the specificity of the radiolabeled HQ4-DTPA versus radiolabeled DTPA in vivo, 10 μg [^111In]DTPA-HQ4 (=10 nmol per mouse) or 10 μg [^111In]DTPA was injected i.v. into mice bearing 4T1-luc2 tumors (n = 3 and 4, respectively). The total injected dose (ID) in each mouse was determined in a dose-calibrator (VDC101, Veenstra Instruments, Joure, the Netherlands).
After the last imaging time point, mice were sacrificed and several tissues were excised, weighed, and counted for radioactivity (Wizard2 2470 automatic gamma scintillation counter, Perkin Elmer, USA) to determine the percentage of the injected dose per gram (%ID/g). The %ID/g was calculated as follows: (((MBq measured in tissue/injected dose) × 100 %) / weight of tissue).
Fig. 3 Optical imaging, SPECT, and biodistribution of [^111In]DTPA-HQ4 in 4T1 breast tumor bearing mice. a Whole body FLI (coronal view) obtained 6–72 h after tail vein injection of [^111In]DTPA-HQ4 (10 nmol, 30–35 MBq). […] Six, 24, 48, and 72 h after probe injection, mice (n = 3 per time point) were sacrificed and the organs, body fluids, and tumors were dissected, weighed, and measured for radioactivity in a gamma counter. At each time point, the amount of radioactivity in the organs is expressed as percentage of the injected dose divided by […] (%ID/w). d TUNEL-stained histological section of a representative 4T1 mouse breast tumor showing a large area of necrosis (brown).
Supplementary Figure 4: Biodistribution of [111In]DTPA. a) Biodistribution of the free chelate [111In]DTPA in 4T1 tumor bearing mice. 24h after probe injection (10 µg, 30-35 MBq), mice (n=4) were sacrificed and the organs, body fluids and tumors were dissected, weighted and measured for radioactivity in a gamma counter. […]

[4] = Radioactivity remaining in the whole mouse body after injection (clearance); assay type: in vivo; details: for total injected dose retained in the body: whole mouse body
Method: as §2
Supplementary Figure 4: Biodistribution of [111In]DTPA. a) Biodistribution of the free chelate [111In]DTPA in 4T1 tumor bearing mice. 24h after probe injection (10 µg, 30-35 MBq), mice (n=4) were sacrificed and the organs, body fluids and tumors were dissected, weighted and measured for radioactivity in a gamma counter. At each time point, the amount of radioactivity in each organ and tumor is expressed as percentage of the injected dose divided by the weight (%ID/w). b) Total amount of remaining [111In]DTPA-HQ4 and [111In]DTPA in the whole mouse body (% of ID) at the indicated time points 6 to 72h after probe injection.
as §1

## CC(C)=CCC[C@]1(C)C=Cc2c(O)c3c(c(CC=C(C)C)c2O1)O[C@]12C(=C[C@@H]4C[C@H]1C(C)(C)O[C@@]2(C/C=C(/C)C(=O)O)C4=O)C3=O [GA, Gambogic acid]
[1]
  IC50: ~6 µM

## CCCNS(=O)(=O)c1cccc2c3c(ccc12)[N+](CCCCCC(=O)NCCOCCOCCNC(=O)CN(CCN(CCN(CC(=O)O)CC(=O)O)CC(=O)O)CC(=O)O)=C(/C=C/C=C/C=C1/N(CCCCS(=O)(=O)[O-])c2ccc4ccccc4c2C1(C)C)C3(C)C [HQ4-DTPA]
[2]; FLI
  accumulation in the area of dead cells by fluorescence imaging: strongly accumulated in the area of dead cells

## O=C([O-])CN(CCN(CC(=O)[O-])CC(=O)[O-])CCN(CC(=O)[O-])CC(=O)[O-].[111In+3].[H+].[H+] [[^111In]DTPA]
[2]
  accumulation in the dead cells area by radioactivity (RA) measurement: neither [^111In]DTPA nor free ^111In-Cl3 accumulated in the dead cells area
[3]
  radioactivity in kidneys: 5.0 %ID/w
  radioactivity in liver: 0.6 %ID/w
  radioactivity in tumors: 0.5 %ID/w
[4]; 24 h after injection
  total injected dose retained in the body: 10%
[4]; 48 h after injection
  total injected dose retained in the body: 8%
[4]; fold faster than [111In]DTPA-HQ4
  clearance rate relative to [111In]DTPA-HQ4: about 8 fold

## [Cl][In]([Cl])[Cl] [^111In-Cl3, ^111indium-chloride]
[2]
  accumulation in the dead cells area by radioactivity (RA) measurement: neither [^111In]DTPA nor free ^111In-Cl3 accumulated in the dead cells area
